The text below walks through data of patent US20030207340A1, “Sequences encoding human neoplastic marker” (priority 2002, published 2003).

By EC50 is commonly meant the concentration giving half of the maximal effect. Lower therefore signals a more potent agent.

Assay [1] deals with COS cells stably transfected with tNOX cDNA. Nature of the assay: Growth inhibition of COS cells transfected with tNOX cDNA. The class given is cell-based, African monkey. The following applies: for EC50: Primates, COS cells stably transfected with tNOX cDNA, growth inhibition; for change of growth response (susceptibility) by tNOX cDNA transfection: tNOX cDNA-transfected vs control COS cells. The text has this:
Transient transfection of COS cells were with pcDNA3.1 (Invitrogen) and a Calcium Phosphate Transfection Kit (Invitrogen, Carlsbad, Calif.) according to the manufacturer's protocol. ttNOX cDNA was first amplified by PCR using primers 5═-[…]-3′ (forward; SEQ ID NO: 12) and 5′-[…]-3′ (reverse, SEQ ID NO: 13). The PCR product was then amplified using primers 5′-[…]-3′ (forward, SEQ ID NO: 14) and 5′-[…]-3′ (reverse, SEQ ID NO: 15) to construct a HindIII site at 5′ end of the nontemplate strand. The product was double digested using HindIII and BamHI enzymes. The digested products were separated on an agarose gel and extracted using a DNA Extraction Kit (Qiagen, Valencia, Calif.). The DNA was then ligated into a pcDNA3.1 vector that contains a cytomegalovirus enhancer-promoter for high levels of expression. For propagation of the plasmid DNA, the ligation product was used to transform XL-1 blue competent cells using heat pulse technique (Sambrook et al., 1989, supra). The positive clones were identified by PCR. The resulting plasmid was then used to transfect COS cells.
(§1) COS-1 cells (African monkey kidney cell line), were plated one day prior to transfection at 4×10^5 cells per 100-mm dish. Thirty-six μl of 2 M CaCl2 and 30 μg of pcDNA3.1 or pcDNA3.1-tNOX in 300 μl sterile H2O were slowly added dropwise into 300 μl of 2× Hepes Buffered Saline (HBS) at room temperature for 30 min. The transfection mixtures then were added dropwise to the media to the cells and incubated overnight at 37C. After overnight exposure to the DNA precipitate, the cells were washed twice with PBS and 3 ml of DMSO were added for 2.5 min. The DMSO then was removed and cells were fed with fresh media for 2-3 days. tNOX expression was evaluated on the basis of enzymatic activity and Western blot analysis. For selection of stable transfectants, antibiotic G418 sulfate was used (Invitrogen, Carlsbad, Calif.). After the COS cells were transfected with the tNOX cDNA expression plasmid, 0.5 mg/ml of G418 sulfate was added into the media twice a week and the cultures were maintained until colonies 2 to 3 mm in diameter were formed. A total of three colonies were selected and trypsinized individually and then transferred into wells of a 24-well plate and then into a 35 mm petri dish. Cells were harvested at 80% confluency. Transfections were confirmed by immunoblotting.

Assay [2] relates to COS cells. The assay is described as follows: Growth inhibition of control COS cells (nontransfected / vector alone). Type of assay: cell-based, African monkey. Conditions: for EC50: Primates, nontransfected COS cells, growth inhibition. The procedure:
as §1

Assay [3] concerns the target T1, ttNOX (truncated tNOX) (Homo sapiens, UniProt Q16206).
T1 construct: made in house; host or cells: E. coli BL21 (DE3), vector pET-11b; crude induced bacterial extract
T1 sequence (Q16206 220-610): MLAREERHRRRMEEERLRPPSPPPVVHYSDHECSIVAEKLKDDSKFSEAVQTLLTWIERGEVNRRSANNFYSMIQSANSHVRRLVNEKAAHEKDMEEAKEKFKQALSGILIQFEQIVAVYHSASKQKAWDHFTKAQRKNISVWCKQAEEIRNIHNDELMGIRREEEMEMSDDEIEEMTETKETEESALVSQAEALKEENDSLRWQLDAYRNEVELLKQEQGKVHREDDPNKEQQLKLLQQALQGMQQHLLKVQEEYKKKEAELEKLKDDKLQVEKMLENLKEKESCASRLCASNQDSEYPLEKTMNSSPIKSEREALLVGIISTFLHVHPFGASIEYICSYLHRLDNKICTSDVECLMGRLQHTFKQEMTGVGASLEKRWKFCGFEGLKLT
Nature of the assay: NADH oxidase activity of ttNOX expressed in E. coli (induced bacterial extract). The class given is biochemical. The text has this: tNOX cDNA from clone 1 was expressed in E. coli either as a truncated form (ttNOX) (beginning at M220), as a fusion protein with six histidine residues (ttNOX-his) fused to the amino terminus of ttNOX, or as a processed tNOX (beginning at G327). First, the open reading frame of ttNOX DNA and nucleotides of 3′-untranslated region were amplified by PCR, digested with NdeI and BamHI followed by ligation into the protein expression vector pET-11b. All primers were synthesized by the Laboratory for Macromolecular Structure (Purdue University, IN). Primers for PCR amplification of ttNOX were 5′-[…]-3′ (forward, SEQ ID NO: 6) and 5′[…]-3′ (reverse, SEQ ID NO: 7). Primers for processed form of tNOX were 5′-[…]-3′ (forward, SEQ ID NO: 8) and 5′-[…]-3′ (reverse, SEQ ID NO: 9). Primers for histidine-tagged ttNOX were 5′-[…]-3′ (forward, SEQ ID NO: 10) and 5′-[…]-3′ (reverse, SEQ ID NO: 11). The forward primer was designed to incorporate six histidine residues to the amino terminus of tNOX protein. The amplification performed was with an initiation step of 94C. for 90 sec, followed by 90 sec of denaturation at 94C., 90 sec of annealing at 55C., and 90 sec of extension at 72C. for 29 cycles.
E. coli [BL21 (DE3)] were transfected and grown in LB medium containing ampicillin (100 μg/ml) for 16 hr at 25C. and harvested. DNA sequences of the ligation products were confirmed by DNA sequencing. Expressions of all forms of tNOX were confirmed by SDS-PAGE with silver staining and immunoblotting. Immunoblot analysis was with anti-tNOX monoclonal antibody. Detection used alkaline […] conjugated anti-mouse antibody.

The subject of assay [4] is plasma membranes prepared from HeLa cells. Conditions: cited from earlier work.
For assay [5], the target named is T2, tNOX (Homo sapiens, UniProt Q16206).
T2 sequence (Q16206 1-610): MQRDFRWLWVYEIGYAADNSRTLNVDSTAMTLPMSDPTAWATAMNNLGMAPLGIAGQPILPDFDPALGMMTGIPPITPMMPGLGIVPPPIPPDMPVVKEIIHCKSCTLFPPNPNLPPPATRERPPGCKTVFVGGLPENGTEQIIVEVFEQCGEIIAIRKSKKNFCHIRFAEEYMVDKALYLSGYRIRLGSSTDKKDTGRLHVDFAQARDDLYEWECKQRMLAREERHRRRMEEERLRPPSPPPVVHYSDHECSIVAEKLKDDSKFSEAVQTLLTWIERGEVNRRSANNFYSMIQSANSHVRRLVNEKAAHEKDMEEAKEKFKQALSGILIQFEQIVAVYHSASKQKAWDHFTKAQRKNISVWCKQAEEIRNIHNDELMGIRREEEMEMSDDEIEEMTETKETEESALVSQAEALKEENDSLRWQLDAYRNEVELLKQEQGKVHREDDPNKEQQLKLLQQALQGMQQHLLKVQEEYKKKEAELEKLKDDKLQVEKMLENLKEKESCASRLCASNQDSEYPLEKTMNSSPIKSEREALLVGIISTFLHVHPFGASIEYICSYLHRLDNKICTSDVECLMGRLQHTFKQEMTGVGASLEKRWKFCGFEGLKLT
Conditions: cited from earlier work.

Assay [6] concerns CNOX. Conditions: cited from earlier work.

`Cc1ccc(S(=O)(=O)NC(=O)Nc2ccc(Cl)cc2)cc1` [LY181984, N-(4-methylphenylsulfonyl)-N′-(4-chlorophenyl)urea]: the EC50 in assay [1] was determined as 3000 nM; in assay [2] it was 20000 nM. The “inhibition of NADH oxidase activity of induced bacterial extract” value in assay [3] (1 μM) is given as “completely inhibited”. In addition, in assay [4], the “oxygen uptake by HeLa plasma membranes” value was “inhibited”.
In the case of (−)-epigallocatechin gallate [EGCg], in assay [1], the “change of growth response (susceptibility) by tNOX cDNA transfection” value (“change of growth response” below) is given as “more susceptible”. The “effect on activity of tNOX” value in assay [5] was “inhibits”. For the same compound, the “effect on constitutive CNOX” value in assay [6] is on record as “largely without effect”.
Turning to `Cc1ccc(S(=O)(=O)NC(=O)Nc2ccccc2)cc1` [LY181985, N-(4-methylphenylsulfonyl)-N′-(4-phenyl)urea], the growth inhibition result in assay [1] (cells transfected with tNOX cDNA) and in assay [2] (control cells transfected with vector alone) was “did not inhibit” each time.
Turning to `COc1cc(CNC(=O)CCCC/C=C/C(C)C)ccc1O` [Capsaicin, 8-methyl-N-vanillyl-6-noneamide], the values for the EC50 in assay [1] and in assay [2] were 1300 nM and 13000 nM, respectively. The “change of growth response” value in assay [1] was “more susceptible”. For the same compound, in assay [3], the “inhibition of the activity of the bacterially expressed protein” value is “complete”. Further, the “periodic NADH oxidase activity of induced bacterial extracts” value in assay [3] (in the presence of 1 or 100 μM capsaicin) is “no periodic activity”.
Consider `CN(Cc1cnc2nc(N)nc(N)c2n1)c1ccc(C(=O)N[C@@H](CCC(=O)O)C(=O)O)cc1` [Methotrexate, methotrexate], for which, in assay [1], the EC50 came to 1000 nM and the “change of growth response” value was “unaffected”. In addition, the half-maximal effective concentration (EC50) in assay [2] was found to be 1000 nM.
Turning to `COc1cccc2c1C(=O)c1c(O)c3c(c(O)c1C2=O)C[C@@](O)(C(=O)CO)C[C@@H]3O[C@H]1C[C@H](N)[C@H](O)[C@H](C)O1` [Adriamycin, adriamycin], the EC50 in assay [1] was found to be 40 nM; in assay [2], 300 nM.
